From patent publication US12714671B2, “Cell membrane lipid-extracted nanoparticles (CLENs) for selective targeting, image analysis and cancer therapy” (priority 2018, dated 2026)
Counter-ions that a name gives are not always drawn.

System: 4T1 cells
Assay: Cytotoxicity of doxorubicin-loaded CLENs (SRB assay)
Assay type: cell-based, murine
Conditions: 24 h, free doxorubicin 0.5 μmol/ml
Description: 4T1 cells were seeded at 1×10^4 per ml in a 48-well plate. Cells were exposed to different concentrations of doxorubicin-loaded CLENs (4T1, BT-20, and SKBR-3). SRB assay was used to determine percent of cell viability 24 hours following exposure to doxorubicin (5 mol %). Error bars indicate mean±S.D. (n=6).
Sulforhodamine B (SRB) assay was used to determine percent viability of control based on the amount of basic proteins in viable cells following exposure to different CLENs. Cells were seeded at 1×10^4 per ml in a 48-well plate. Columns of cells in the 48 well plate were exposed to either doxil, free doxorubicin, SKBR-3, BT-20 or 4T1 CLENs-loaded with doxorubicin (5 mol %). […] Finally, 1 mL of 1×PBS was added to each well and the plate was analyzed using a fluorescence microplate reader. The fluorescence intensity was measured at excitation wavelength of 540/20 nm and emission wavelength of 590/20 nm using FLX 800 Fluorescence Microplate Reader (Bio-tech Instruments, Winooski, VT).
Enhanced cellular uptake and selective drug targeting are important features of a drug delivery system, but how each translates overall to therapy is critical to success. For this reason, cytotoxicity of three different doxorubicin-loaded CLENs was evaluated for 4T1, BT-20 and SKBR-3 variety, doxil, and free doxorubicin (0.5 μmol/ml) against the growth of 4T1 cells in vitro. […]

COc1cccc2c1C(=O)c1c(O)c3c(c(O)c1C2=O)C[C@@](O)(C(=O)CO)C[C@@H]3O[C@H]1C[C@H](N)[C@H](O)[C@H](C)O1 [free doxorubicin, Doxorubicin hydrochloride]
cytotoxicity against growth of 4T1 cells (comparison in words): No significant difference in cytotoxicity
